From paper PMC6920499, “Sustainability potentials of novel laccase tinctures from Stenotrophomonas maltophilia BIJ16 and Bordetella bronchiseptica HSO16: From dye decolourization to denim bioscouring” (Biotechnology Reports, 2019)

What was measured:
[1] = system: T1, Bordetella sp. HSO16 laccase (Hb16c laccase); assay: ABTS oxidation at […] nm, Lineweaver-Burk; assay type: biochemical; conditions: crude laccase; standard assay potassium phosphate pH 6, 30 °C
T1 construct: gene cueO; crude culture supernatant, native secreted laccase, not purified; several laccase-like genes inferred by PCR
Excerpt: HSO16 laccase (Hb16c laccase)

[2] = system: T2, Stenotrophomonas sp. BIJ16 laccase (Berl1^1b2 laccase); assay: ABTS oxidation at […] nm, Lineweaver-Burk; assay type: biochemical; conditions: crude laccase; standard assay potassium phosphate pH 6, 30 °C
T2 construct: gene MCOStm; crude culture supernatant, native secreted laccase, not purified; several laccase-like genes inferred by PCR
Excerpt: BIJ16 laccase (Berl1^1b2 laccase)

## CCn1c(=NN=c2sc3cc(S(=O)(=O)O)ccc3n2CC)sc2cc(S(=O)(=O)O)ccc21 [ABTS, 2,2’-azino-bis (3-ethylbenzothiazoline-6-sulfonic acid)]
[1]
  Km: 1.09 µM
[2]
  Km: 0.636 µM
